Reference: the supplement of paper PMC10307832

Columns and labels:
Experiment in all cases: relative viability (nuclei count vs DMSO), 5 days (fraction); higher = more cells survive
[1] = tested on: SK-LU-1
How it was run: (§1)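 After 5 days of treatment, lung cancer cells in 1536-well plates were fixed and stained in a single step (final 0.05% Triton X-100, 1% formaldehyde, 1 ug/ml Hoechst) and their nuclei counted on 4× images. Treatment had been applied by pin tool the day after seeding as one drug alone or as a fixed anchor-drug dose with five library-drug doses (not always all listed) in √10 steps. Relative viability is the nuclei count of treated wells divided by that of vehicle wells, and values are medians of duplicate plates.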

[2] = tested on: NCI-H2126
How it was run: as §1

[3] = tested on: NCI-H23
How it was run: as §1

[4] = tested on: ABC-1
How it was run: as §1

[5] = tested on: NCI-H1944
How it was run: as §1

[6] = tested on: EMC-BAC-2
How it was run: as §1

[7] = tested on: NCI-H2023
How it was run: as §1

[8] = tested on: HCC-78
How it was run: as §1

[9] = tested on: LC-2-ad
How it was run: as §1

[10] = tested on: HCC-15
How it was run: as §1

[11] = tested on: HOP-62
How it was run: as §1

[12] = tested on: NCI-H838
How it was run: as §1

[13] = tested on: NCI-H1793
How it was run: as §1

[14] = tested on: ChaGo-K-1
How it was run: as §1

[15] = tested on: NCI-H2228
How it was run: as §1

[16] = tested on: NCI-H1395
How it was run: as §1

[17] = tested on: NCI-H2405
How it was run: as §1

[18] = tested on: COR-L23
How it was run: as §1

[19] = tested on: NCI-H358
How it was run: as §1

[20] = tested on: NCI-H1993
How it was run: as §1

[21] = tested on: HARA
How it was run: as §1

[22] = tested on: HCC-366
How it was run: as §1

Cc1sc2c(c1C)C(c1ccc(Cl)cc1)=N[C@@H](CC(=O)OC(C)(C)C)c1nnc(C)n1-2 [JQ1] + COc1cccc2cc(-c3nc([C@H]4CC[C@H](C(=O)O)CC4)n4ncnc(N)c34)[nH]c12 [OSI-027] (partner 0.5 µM)
relative viability ([1]; first compound 0.04 µM): 0.381
relative viability ([1]; first compound 0.1265 µM): 0.333
relative viability ([1]; first compound 0.4 µM): 0.253
relative viability ([1]; first compound 1.265 µM): 0.158
relative viability ([1]; first compound 4 µM): 0.143
relative viability ([2]; first compound 0.04 µM): 0.712
relative viability ([2]; first compound 0.1265 µM): 0.72
relative viability ([2]; first compound 0.4 µM): 0.739
relative viability ([2]; first compound 1.265 µM): 0.552
relative viability ([2]; first compound 4 µM): 0.431
relative viability ([3]; first compound 0.04 µM): 0.586
relative viability ([3]; first compound 0.1265 µM): 0.583
relative viability ([3]; first compound 0.4 µM): 0.394
relative viability ([3]; first compound 1.265 µM): 0.198
relative viability ([3]; first compound 4 µM): 0.204
relative viability ([4]; first compound 0.04 µM): 0.452
relative viability ([4]; first compound 0.1265 µM): 0.352
relative viability ([4]; first compound 0.4 µM): 0.322
relative viability ([4]; first compound 1.265 µM): 0.187
relative viability ([4]; first compound 4 µM): 0.212
relative viability ([5]; first compound 0.04 µM): 0.39
relative viability ([5]; first compound 0.1265 µM): 0.364
relative viability ([5]; first compound 0.4 µM): 0.375
relative viability ([5]; first compound 1.265 µM): 0.227
relative viability ([5]; first compound 4 µM): 0.25
relative viability ([6]; first compound 0.04 µM): 0.405
relative viability ([6]; first compound 0.1265 µM): 0.286
relative viability ([6]; first compound 0.4 µM): 0.301
relative viability ([6]; first compound 1.265 µM): 0.189
relative viability ([6]; first compound 4 µM): 0.224
relative viability ([7]; first compound 0.04 µM): 0.362
relative viability ([7]; first compound 0.1265 µM): 0.377
relative viability ([7]; first compound 0.4 µM): 0.262
relative viability ([7]; first compound 1.265 µM): 0.142
relative viability ([7]; first compound 4 µM): 0.148
relative viability ([8]; first compound 0.04 µM): 0.389
relative viability ([8]; first compound 0.1265 µM): 0.47
relative viability ([8]; first compound 0.4 µM): 0.387
relative viability ([8]; first compound 1.265 µM): 0.335
relative viability ([8]; first compound 4 µM): 0.296
relative viability ([9]; first compound 0.04 µM): 0.77
relative viability ([9]; first compound 0.1265 µM): 0.543
relative viability ([9]; first compound 0.4 µM): 0.62
relative viability ([9]; first compound 1.265 µM): 0.366
relative viability ([9]; first compound 4 µM): 0.302
relative viability ([10]; first compound 0.04 µM): 0.693
relative viability ([10]; first compound 0.4 µM): 0.593
relative viability ([10]; first compound 1.265 µM): 0.347
relative viability ([10]; first compound 4 µM): 0.315
relative viability ([11]; first compound 0.04 µM): 0.826
relative viability ([11]; first compound 0.1265 µM): 0.613
relative viability ([11]; first compound 0.4 µM): 0.45
relative viability ([11]; first compound 1.265 µM): 0.189
relative viability ([11]; first compound 4 µM): 0.149
relative viability ([12]; first compound 0.04 µM): 0.379
relative viability ([12]; first compound 0.1265 µM): 0.369
relative viability ([12]; first compound 0.4 µM): 0.433
relative viability ([12]; first compound 1.265 µM): 0.251
relative viability ([12]; first compound 4 µM): 0.21
relative viability ([13]; first compound 0.04 µM): 0.237
relative viability ([13]; first compound 0.1265 µM): 0.343
relative viability ([13]; first compound 0.4 µM): 0.38
relative viability ([13]; first compound 1.265 µM): 0.241
relative viability ([13]; first compound 4 µM): 0.286
relative viability ([14]; first compound 0.04 µM): 0.564
relative viability ([14]; first compound 0.1265 µM): 0.519
relative viability ([14]; first compound 0.4 µM): 0.472
relative viability ([14]; first compound 1.265 µM): 0.345
relative viability ([14]; first compound 4 µM): 0.28
relative viability ([15]; first compound 0.04 µM): 0.731
relative viability ([15]; first compound 0.1265 µM): 0.657
relative viability ([15]; first compound 0.4 µM): 0.466
relative viability ([15]; first compound 1.265 µM): 0.257
relative viability ([15]; first compound 4 µM): 0.296
relative viability ([16]; first compound 0.04 µM): 0.626
relative viability ([16]; first compound 0.1265 µM): 0.489
relative viability ([16]; first compound 0.4 µM): 0.605
relative viability ([16]; first compound 1.265 µM): 0.488
relative viability ([16]; first compound 4 µM): 0.477
relative viability ([17]; first compound 0.04 µM): 0.651
relative viability ([17]; first compound 0.1265 µM): 0.632
relative viability ([17]; first compound 0.4 µM): 0.696
relative viability ([17]; first compound 1.265 µM): 0.58
relative viability ([17]; first compound 4 µM): 0.582
relative viability ([18]; first compound 0.04 µM): 0.861
relative viability ([18]; first compound 0.1265 µM): 0.662
relative viability ([18]; first compound 0.4 µM): 0.699
relative viability ([18]; first compound 1.265 µM): 0.293
relative viability ([18]; first compound 4 µM): 0.46
relative viability ([19]; first compound 0.04 µM): 0.705
relative viability ([19]; first compound 0.1265 µM): 0.796
relative viability ([19]; first compound 0.4 µM): 0.748
relative viability ([19]; first compound 1.265 µM): 0.47
relative viability ([19]; first compound 4 µM): 0.461
relative viability ([20]; first compound 0.04 µM): 0.511
relative viability ([20]; first compound 0.1265 µM): 0.608
relative viability ([20]; first compound 0.4 µM): 0.623
relative viability ([20]; first compound 1.265 µM): 0.537
relative viability ([20]; first compound 4 µM): 0.538
relative viability ([21]; first compound 0.04 µM): 0.418
relative viability ([21]; first compound 0.1265 µM): 0.341
relative viability ([21]; first compound 0.4 µM): 0.282
relative viability ([21]; first compound 1.265 µM): 0.11
relative viability ([21]; first compound 4 µM): 0.141
relative viability ([22]; first compound 0.04 µM): 0.958
relative viability ([22]; first compound 0.4 µM): 0.783
relative viability ([22]; first compound 1.265 µM): 0.336
relative viability ([22]; first compound 4 µM): 0.31
